Experimental data taken from patent publication US10357460B2, “Particulate comprising a calcium-containing compound and a sugar alcohol” (Takeda Nycomed AS, priority 2004, dated 2019).

Key:
[1] = Tablet hardness as a function of compression pressure (Schleuniger AT4); format: physicochemical
Description: Sorbitol was lump breaked in a Cone Mill (Quadro U20) and afterwards premixed with Calcium Carbonate in a high-shear mixer (Diosna P250 at low impeller speed and no chopper) for 60 sec.
The premix was granulated on a roller compactor (Gerteis 3W-Polygran), and the compacted granules was then mixed with Povidone K30, Aspartame, D3 Vitamin and Flavour in a high-shear mixer (Diosna P250 at low impeller speed and no chopper) for 60 sec. Finally, lubrication with Magnesium Stearate was done a high-shear mixer (Diosna P250 at low impeller speed and no chopper) for 25 sec.
The roller compaction was based on a setup with knurled rollers and control. The key set up parameters are: Gap Width (GW), Force (F), Roller Speed (RS) and screen size.
Tablet weight was approximately 1,750 mg. All in-process weight and hardness data are obtained using a Schleuniger AT4.

[2] = Compactability of sugar alcohols compressed alone; format: physicochemical; details: tablets of sugar alcohol alone; FIG. 19
Description: Tablets comprising sorbitol 110 μm, sorbitol 38 μm, isomalt 27 μm, maltitol, mannitol or xylitol were compressed on an instrumented Fette Exacta 1/F single punch tablet press, only maximum compression force on the upper punch was recorded.
Before the compression of each tablet the punch tips and the die bore were lubricated with a 5% suspension of magnesium stearate in acetone. The acetone was allowed to evaporate before compression of the tablet.
The sugar alcohol was weighed, transferred to the die bore and then compressed, see Table 14. Immediately after ejection the tablet was tested for crushing strength.

[3] = Crushing strength versus tablet compression force, calcium carbonate/sugar alcohol tablets (Example 11); details: for tendency of capping: observed during the experiment
Description: In all the below described experiments 1-24 the amount of calcium salt is 76.22% w/w of the final tablet mass, the amount of sugar alcohol is 23.78% w/w, with the exception of experiments 4 and 20 at which the 23.78% w/w of sugar alcohol is replaced with 14.63% w/w of sugar alcohol and 9.15% w/w of Precirol.
The calcium salt and the sugar alcohol are mixed in a total amount of 6 kg in a Fielder high shear mixer. The sugar alcohol is sieved through sieve size 300 μm prior to mixing. The mixing of 6 kg is done twice and the total yield of 12 kg is mixed in a planetary mixer. Thereafter, the mixtures are roller compacted (intra granular sugar alcohol) using the following values for GW, F, RS and screen size. (For the experiments 25-26 the sugar alcohol is admixed by hand after roller compaction has been carried out (extra granular sugar alcohol)).
The compactate is admixed with 0.34% w/w of magnesium stearate.
Compression is carried out on a Fette 1090 using a 18.9 mm×9.4 mm capsule shaped punch design and a theoretical tablet mass of 1683 mg. […] The crushing strength has been measured by use of a Schleuniger Autotest 4 and n=20.

pre-menopausal women = details: 1200 mg of calcium supplements daily, three menstrual cycles; placebo 48%; cited from earlier work
treated patients = details: annual injections of 150.000-300.000 IU; cited from earlier work

Compound | compactability (slope of compression force versus crushing strength) [2] | tendency of capping [3] | further results
OC[C@@H](O)[C@@H](O[C@H]1O[C@H](CO)[C@@H](O)[C@H](O)[C@H]1O)[C@H](O)[C@@H](O)CO [maltitol, Maltitol] | very poor compactability | tendency of capping | binding properties (tablet hardness) ([1]; maltitol versus sorbitol 38 μm as binder, capsule shaped 9.4 mm*18.9 mm, FIG. 7): does not impart as good binding properties
[Ca] [calcium] | – | – | women with PMS related symptoms (pre-menopausal women): 30%
vitamin D | – | – | overall fracture rate (treated patients): significant reduction; rate of hip fracture (treated patients): not in the rate of hip fracture
Isomalt | Sorbitol is followed by isomalt | – | –
Glycerol distearat Type I EP [Precirol] | – | – | crushing strength ([3]; addition of Precirol to xylitol 34 μm, FIG. 11): increases the crushing strength

Continued, in another order:

compactability (slope of compression force versus crushing strength) [2] | tendency of capping [3] | Compound | further results
very poor compactability | tendency of capping | OC[C@@H](O)[C@H](O)[C@@H](O)CO [xylitol, Xylitol] | –
very poor compactability | tendency of capping | OC[C@@H](O)[C@@H](O)[C@H](O)[C@H](O)CO [mannitol, Mannitol] | –
best compactability | – | OC[C@@H](O)[C@@H](O)[C@H](O)[C@@H](O)CO [sorbitol, Sorbitol] | tablet hardness ([1]; decreasing size of sorbitol (110, 38, 11 μm), fixed compression force, 14 mm round tablets, FIG. 4): markedly increased tablet hardness; tablet hardness ([1]; presence of sorbitol compared to tablets consisting solely of calcium carbonate, FIG. 1): increased tablet hardness values
